Measurements reported in patent publication US20160046592A1, “PHARMACEUTICAL COMPOSITION FOR THE TREATMENT OF DIABETES” (Ajinomoto Co., Inc., priority 2013, published 2016).
Counter-ions that a name gives are not always drawn.

Molecular target: T1, human GYS1 (glycogen synthase) (Homo sapiens, UniProt P13807)
T1 construct: made in house; host or cells: HEK293T
T1 sequence (P13807 1-737): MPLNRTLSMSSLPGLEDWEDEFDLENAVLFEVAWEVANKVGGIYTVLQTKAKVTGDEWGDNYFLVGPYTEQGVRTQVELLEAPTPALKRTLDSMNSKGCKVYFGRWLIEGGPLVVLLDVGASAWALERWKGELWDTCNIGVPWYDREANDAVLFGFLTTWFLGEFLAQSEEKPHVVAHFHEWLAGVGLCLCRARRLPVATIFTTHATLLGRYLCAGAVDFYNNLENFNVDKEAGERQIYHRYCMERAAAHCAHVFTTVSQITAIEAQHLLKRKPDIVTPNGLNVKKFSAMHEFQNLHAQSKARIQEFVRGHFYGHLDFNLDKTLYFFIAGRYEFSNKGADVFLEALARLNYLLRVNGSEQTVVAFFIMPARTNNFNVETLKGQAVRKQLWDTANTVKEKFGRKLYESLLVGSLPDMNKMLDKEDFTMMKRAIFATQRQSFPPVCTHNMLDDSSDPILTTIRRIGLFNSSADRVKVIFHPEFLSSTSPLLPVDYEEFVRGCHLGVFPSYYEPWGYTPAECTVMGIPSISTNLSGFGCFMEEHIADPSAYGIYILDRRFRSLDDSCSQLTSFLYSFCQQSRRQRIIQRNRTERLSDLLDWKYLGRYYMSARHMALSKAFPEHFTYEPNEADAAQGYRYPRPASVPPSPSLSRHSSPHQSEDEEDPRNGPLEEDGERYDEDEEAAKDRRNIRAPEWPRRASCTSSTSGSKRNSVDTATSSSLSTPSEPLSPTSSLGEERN
Assay: Measurement of glycogen synthase activity
Format: biochemical
Settings: concentration causing 50% increase in relative activity; 100% = compound of Example 1 of WO/2011/058154 at 10 μM; 10 mM Glucose-6-phosphate; 37° C. for 25 minutes (Examples 1 to 61 and 67 to 82) or 20 minutes (Examples 62 to 66); absorbance at 340 nm
Protocol: A human GYS1 expression plasmid (pCDNA3.1(+)-hGYS1) was constructed by the following method. By using a human skeletal muscle cDNA of Human MTC Panel I (Takara Bio Inc., 636742) as a template, a human GYS1 gene was amplified by a PCR method using cloning primers (Forward Primer: ATGCCTTTAAACCGCAC, Reverse Primer: TTAGTTACGCTCCTCGC). By using the amplified human GYS1 sequence as a template, restriction enzyme sequences were added by a PCR method using sub-cloning primers (Forward Primer: […], and Reverse Primer: […]), and then the human GYS1 gene was introduced between Xho I and Xba I sites of pCDNA3.1(+) (Invitrogen, V790-20).
Glycogen synthase was prepared by the following method. Human kidney-derived HEK293T cells were seeded in a dish (Thermo Fisher Scientific K.K., 168381) by using a 10% FBS-containing DMEM (Nacalai Tesque, Inc., 0845874) medium, and cultured overnight. Then, by using Lipofectamine LTX (Invitrogen, 15338-100), the cells were transfected with the human GYS1 expression vector according to the attached manual. After culturing under conditions of 37° C. and 5% CO2 for 2 days, the resultant was lysed in a lysis buffer (50 mM Tris-HCl (pH 8.0), 10 mM EDTA, 2 mM EGTA, 100 mM NaF, 1 mM PMSF, 1 mM DTT, and 1× Complete (Roche, 1873580)), homogenized, and then centrifuged at 16000×g at 4° C. for 15 minutes. The precipitated fraction re-dissolved by adding the lysis buffer was used as a glycogen synthase for evaluation.
The glycogen synthase activity was measured by the following method. To a polystyrene 96-well plate, solutions each containing 30 mM glycylglycine (pH 7.3), 40 mM KCl, 20 mM MgCl2, 9.2% DMSO containing one of the test compounds at one of various concentrations, and 10 mM Glucose-6-phosphate (Sigma-Aldrich, G7879) were added at 12 μL/well.
Next, a substrate solution containing 30 mM glycylglycine (pH 7.3), 4.3 mg/mL glycogen (Sigma-Aldrich, G8876), 21.6 mM UDP-glucose (Sigma-Aldrich, U4625), 21.6 mM phosphoenolpyruvic acid (Sigma-Aldrich, P0564), and 4.05 mM NADH (Sigma-Aldrich, N8129) was added at 18 μL/well.
Moreover, an enzyme solution containing 50 mM Tris-HCl (pH 8.0), 27 mM DTT (NACALAI TESQUE, INC., 14128-04), 0.2 mg/mL bovine serum albumin, 0.17 mg/mL glycogen synthase, and 1.5 μL pyruvate kinase/lactate dehydrogenase solution (Sigma-Aldrich, P0294) was added at 18 μL/well to prepare reaction solutions. After the reaction solutions were incubated (at 37° C. for 25 minutes for Examples 1 to 61 and 67 to 82 or at 37° C. for 20 minutes for Examples 62 to 66), the absorbance at 340 nm was measured by using Benchmark Plus (Bio-Rad Laboratories, Inc.).
The activity of each test compound was calculated by the following method. The absorbance at 340 nm of the reaction solution containing the compound and DMSO was subtracted from the absorbance at 340 nm of a reaction solution not containing the compound but containing only DMSO to calculate the change (ΔA340) in absorbance. The relative activity (%) of the test compound at each of the various concentrations was calculated, where the ΔA340 of a reaction solution containing the compound of Example 1 of WO/2011/058154 at a final concentration of 10 μM was taken as 100%. EC50 representing the concentration of the compound at which an increase in the relative activity by 50% was caused was calculated using XLfit (idbs).

Q: Which EC50 does the source give for CSc1cc(F)c(F)cc1-c1ccc(OCc2cccc(C(=O)N(CC(=O)O)Cc3noc(C)n3)c2)cc1 [Example 69, 2-[[3-[[4-(4,5-Difluoro-2-methylsulfanyl-phenyl)phenoxy]methyl]benzoyl]-[(5-methyl-1,2,4-oxadiazol-3-yl)methyl]amino]acetic Acid] here?
A: 0.02 µM

Q: For CSc1cc(F)c(F)cc1-c1ccc(OCc2cccc(C(=O)N(CCNS(C)(=O)=O)CC(=O)O)c2)cc1 [Example 17, 2-[[3-[[4-(4,5-Difluoro-2-methylsulfanyl-phenyl)phenoxy]methyl]benzoyl]-[2-(methanesulfonamido)ethyl]amino]acetic Acid], which EC50 is on record?
A: 0.01 µM

Q: With CSc1cc(F)c(F)cc1-c1ccc(OCc2cccc(C(=O)N(CCNC(C)=O)CC(=O)O)c2)cc1 [Example 44, 2-[2-Acetamidoethyl-[3-[[4-(4,5-difluoro-2-methylsulfanyl-phenyl)phenoxy]methyl]benzoyl]amino]acetic Acid] as the compound, how does the EC50 read?
A: 0.025 µM

Q: With CSc1cc(F)c(F)cc1-c1ccc(OCc2cccc(C(=O)N(CCN3CCS(=O)(=O)CC3)CC(=O)O)c2)cc1 [Example 41, 2-[[3-[[4-(4,5-Difluoro-2-methylsulfanyl-phenyl)phenoxy]methyl]benzoyl]-[2-(1,1-dioxo-1,4-thiazinan-4-yl)ethyl]amino]acetic Acid Trifluoroacetate] as the compound, how does the EC50 read?
A: 0.021 µM

Q: Which EC50 does the source give for CSc1cc(F)c(F)cc1-c1ccc(OCc2cccc(C(=O)N(CC(=O)O)Cc3ccnn3C)c2)cc1 [Example 55, 2-[[3-[[4-(4,5-Difluoro-2-methylsulfanyl-phenyl)phenoxy]methyl]benzoyl]-[(2-methylpyrazol-3-yl)methyl]amino]acetic Acid] here?
A: 0.022 µM

Q: For COCCCN(CC(=O)O)C(=O)c1cccc(COc2ccc(-c3cc(F)c(F)cc3SC)cc2)c1 [Example 30, 2-[[3-[[4-(4,5-Difluoro-2-methylsulfanyl-phenyl)phenoxy]methyl]benzoyl]-(3-methoxypropyl)amino]acetic Acid], which EC50 is on record?
A: 0.015 µM

Q: Which EC50 does the source give for CSc1cc(F)c(F)cc1-c1ccc(OCc2cccc(C(=O)N(CC(=O)O)Cc3coc(C)n3)c2)cc1 [Example 67, 2-[[3-[[4-(4,5-Difluoro-2-methylsulfanyl-phenyl)phenoxy]methyl]benzoyl]-[(2-methyloxazol-4-yl)methyl]amino]acetic Acid] here?
A: 0.013 µM

Q: How did the EC50 turn out when CSc1cc(F)c(F)cc1-c1ccc(OCc2cccc(C(=O)N3C(C(N)=O)CC[C@H]3C(=O)O)c2)cc1 (single isomer, unassigned) [Example 57, (2S,5R) or (2S,5S)-5-Carbamoyl-1-[3-[[4-(4,5-difluoro-2-methylsulfanyl-phenyl)phenoxy]methyl]benzoyl]pyrrolidine-2-carboxylic Acid] was run?
A: 0.01 µM

Q: With CSc1cc(F)c(F)cc1-c1ccc(OCc2cccc(C(=O)N(CC(=O)O)Cc3ccncc3)c2)cc1 [Example 19, 2-[[3-[[4-(4,5-Difluoro-2-methylsulfanyl-phenyl)phenoxy]methyl]benzoyl]-(4-pyridylmethyl)amino]acetic Acid Trifluoroacetate] as the compound, how does the EC50 read?
A: 0.0034 µM

Q: How did the EC50 turn out when CC(C)(O)CCN(CC(=O)O)C(=O)c1cccc(COc2ccc(-c3cc(F)c(F)c4ccoc34)cc2)c1 [Example 18, 2-[[3-[[4-(4,5-Difluorobenzofuran-7-yl)phenoxy]methyl]benzoyl]-(3-hydroxy-3-methyl-butyl)amino]acetic Acid] was run?
A: 0.0073 µM

Q: With CSc1cc(F)c(F)cc1-c1ccc(OCc2cccc(C(=O)N(CC(=O)O)CC3CCCNC3)c2)cc1 (stereo not drawn) [Example 50, 2-[[3-[[4-(4,5-Difluoro-2-methylsulfanyl-phenyl)phenoxy]methyl]benzoyl]-(3-piperidylmethyl)amino]acetic Acid Trifluoroacetate] as the compound, how does the EC50 read?
A: 0.0063 µM

Q: For CSc1cc(F)c(F)cc1-c1ccc(OCc2cccc(C(=O)N(CC(=O)O)CC3CCS(=O)(=O)C3)c2)cc1 (stereo not drawn) [Example 46, 2-[[3-[[4-(4,5-Difluoro-2-methylsulfanyl-phenyl)phenoxy]methyl]benzoyl]-[(1,1-dioxothiolan-3-yl)methyl]amino]acetic Acid], which EC50 is on record?
A: 0.025 µM
